One series has as its system DuPro. The experiment in a line: MTT assay, tumor cell growth, DuPro. The class given is cell-based. Particulars: 6 days incubation, read-out: ID50 (μM) values for Human Tumor Cell Lines, DuPro. As for the experimental part:
(§1) Effect of Saturated Oligoamines on Human Prostate Tumor Cell Growth by the MTT assay. Saturated oligoamines inhibited prostate cancer cell growth in vitro. DU-145 cells were most sensitive and PC-3 cells were less sensitive to the effects of oligoamines. In general, ID50 values of less than 0.5 μM were obtained (Table 2). Even though the PC-3 cells were relatively more resistant to the oligoamines, at a 5 μM concentration the oligoamines reduced the cell number to less than 1% of the control on day 6 of incubation. Tissue cultures and the MTT assay were performed as follows.
(§2) Tissue Culture. Cells were seeded into 75 cm^2 culture flasks with 15 ml of Eagle's minimal essential medium supplemented with 10% fetal calf serum and nonessential amino acids. The flasks were incubated in a humidified 95% air/5% CO2 atmosphere. The cells were grown for at least 24 h to ensure that they are in the log phase of growth and then they were treated with the oligoamines. Cells were harvested by treatment for 5 min with STV (saline A, 0.05% trypsin, 0.02% EDTA) at 37° C. The flasks were rapped on the lab bench, pipetted several times and aliquots of cell suspension were withdrawn and counted using a Coulter particle counter that has been standardized for counting each cell line using a hemacytometer.
(§3) MTT Assay: Trypsinized cell suspensions were diluted to seed 80 μl suspensions containing 500 cells in each well of a 96 well Corning microtiter plate and incubated overnight at 37° C. in a humidified incubator in 5% CO2. 20 μl of appropriately diluted stock solution of each drug were added to the middle 8 columns of cell suspension in the microtiter plates. Each drug concentration was run in quadruplicate. Outer columns of the plates were used for buffer controls. Cells were incubated with the drug for 6 days at 37° C. in 5% CO2/H2O atmosphere. 25 μl of 5 mg/ml solution of 3-(4,5-dimethylthiazol-2-yl)-2,5-diphenyl tetrazolium bromide (MTT) were added to each well and incubated for 4 hours at 37° C. in 5% CO2/H2O incubator. Cells were lysed by incubating overnight with 100 μl lysis buffer (500 ml of the lysis buffer contains: 100 g lauryl sulfate (SDS), 250 ml of N,N-dimethylformamide, and 2 ml of glacial acetic acid, made up to volume with water; pH 4.8).
(§4) The color was monitored at room temperature at 570 nm in a E-max Precision Microplate Reader (Molecular Devices Corporation, Sunnyvale, Calif.) and data was analyzed using cell survival software supplied by Molecular Devices Corporation.
(Formazan colour is commonly taken as a measure of viable cells.)

The subject of a further series is DuPro Cells. The experiment in a line: Cellular polyamine and oligoamine levels, DuPro cells (HPLC). The series is classed as cell-based. Here is the method: (§5) Cellular Uptake of Oligoamines. There was considerable uptake of oligoamines by the cancer cell lines; see Table 3A (DuPro cells) and Table 3B (PC-3 cells). […] While not wishing to be limited by any particular theory of operation, the cytotoxicity is likely related to their strong aggregation effect on DNA.
(§6) Polyamine Analysis. An appropriate number of cells were taken from harvested samples and centrifuged at 1000 rpm at 4° C. for 5 min. The cells were washed twice with chilled Dulbecco's isotonic phosphate buffer (pH 7.4) by centrifugation at 1000 rpm at 4° C. and resuspended in the same buffer. After the final centrifugation, the supernatant was decanted, and […] of 8% sulfosalycilic acid was added to the cell pellet. The cells were sonicated, and the mixture was kept at 4° C. for at least 1 h. After centrifugation at 8000 g for 5 min, the supernatant was removed for analysis. An appropriate volume (50-100 μl) was fluorescence-labeled by derivatizing with dansyl chloride. Labeled polyamines were loaded onto a C-18 high-performance liquid chromatography column and separated by gradient elution with acetonitrile/water at 50° C. Peaks were detected and quantitated using Shimadzu HPLC fluorescence monitor coupled with a Spectra-Physics peak integrator. Because polyamine levels vary with environmental conditions, control cultures were sampled for each experiment.

The next series relates to PC-3 Cells. The experiment in a line: Cellular polyamine and oligoamine levels, PC-3 cells (HPLC). The series is classed as cell-based. Here is the method: as §5, §6
A further series relates to Calf-thymus DNA. The experiment in a line: Calf-thymus DNA aggregation (absorbance at 320 nm). The series is classed as biochemical. Particulars: 50 mM NaCl, 1 mM Na-cacodylate pH 7.0. Here is the method:
Calf-thymus DNA aggregation by spermine and oligoamines.
Test for DNA Aggregation: DNA aggregation was studied using a Perkin-Elmer Lambda 25 UV/visible spectrophotometer connected to a PTP 6 heating unit using a previously published procedure (see Basu, H S and Marton, L J, “The interaction of spermine and pentamines with DNA,” Biochemical Journal 244:243-246 (1987)). Aggregation was determined in 50 mM NaCl, 1 mM Na-cacodylate pH 7.0 buffer by observing the increase in DNA absorbance (approximately 0.5 A260 units) at 320 nm.

For another series, the system named is DU145. The experiment in a line: MTT assay, tumor cell growth, DU145. The class given is cell-based. To be noted: 6 days incubation, read-out: ID50 (μM) values for Human Tumor Cell Lines, DU145. Here is the method:
as §1, §2, §3, §4

Series [1] can be described thus: Solubility in water for injection. The series is classed as physicochemical. To be noted: dosing solution, 6.25 mg/kg in 0.1 mL/10 g body weight. As for the experimental part:
Response of implanted sc DU-145 prostate tumors to treatment with SL-11159 and SL-11226. This experiment evaluates the antitumor efficacy of SLIL Biomedical Corporation compounds (SL-11159, SL-11226) against subcutaneously-implanted DU-145 human prostate tumor xenografts in male NCr-nu (line 3A10F17T1) mice. All compounds were tested at a single dose level when administered intravenously (iv), at 6.25 mg/kg. Both SL-11159 and SL-11226 were prepared in water for injection (soluble); the injection volume was 0.1 mL/10 g body weight.

A further series concerns PC-3. The experiment in a line: MTT assay, tumor cell growth, PC-3. The series is classed as cell-based. Particulars: 6 days incubation, read-out: ID50 (μM) values for Human Tumor Cell Lines, PC-3. As for the experimental part: as §1, §2, §3, §4
The subject of a further series is LnCap. The series is described as follows: MTT assay, tumor cell growth, LnCap. The series is classed as cell-based. Particulars: 6 days incubation, read-out: ID50 (μM) values for Human Tumor Cell Lines, LnCap. Here is the method: as §1, §2, §3, §4
[2] abbreviates: Day 4 of Treatment, analog conc. 0.8 μM.
[3] abbreviates: Day 6 of Treatment, analog conc. 0.8 μM.
Where [4] appears, read: PC-3, Day 4 of Treatment, analog conc. 1 μM.
[5] abbreviates: PC-3, Day 4 of Treatment, analog conc. 5 μM.
The mark [6] stands for this setting: Day 4 of Treatment, analog conc. 1.6 μM.
[7] abbreviates: PC-3, Day 6 of Treatment, analog conc. 1 μM.

The structures appear in SMILES notation.

On to `CCNCCCCNCCCCNCCCCNCCCCNCCCCNCCCCNCCCCNCCCCNCCCCNCCCCNCCCCNCC.Cl.Cl.Cl.Cl.Cl.Cl.Cl.Cl.Cl.Cl.Cl.Cl` [SL-11226], for which the IC50 amounted to 0.11 µM with DuPro, 0.08 µM in the series with DU145, 0.14 µM in the series on PC-3 and 0.15 µM in the series with LnCap. The “Polyamine levels, Analog (cellular oligoamine level)” value in the series with DuPro Cells (setting [2]) is on record as 0.032 nmoles/10^6 cells; in the series with DuPro Cells (setting [3]) it was 0.022 nmoles/10^6 cells; in the series with PC-3 Cells (setting [4]), 0.021 nmoles/10^6 cells; in the series on PC-3 Cells (setting [5]) it was 0.026 nmoles/10^6 cells. Also, the “Polyamine levels, Put” value is 0.593 nmoles/10^6 cells in the series with DuPro Cells (setting [2]), 0.548 nmoles/10^6 cells in the series on DuPro Cells (setting [3]), 0.573 nmoles/10^6 cells with PC-3 Cells (setting [4]) and 0.985 nmoles/10^6 cells with PC-3 Cells (setting [5]). The results for the “Polyamine levels, Spd” value in the series with DuPro Cells (setting [2]) and with PC-3 Cells (setting [5]) were 0.017 nmoles/10^6 cells and 0.071 nmoles/10^6 cells, respectively. The “Polyamine levels, Spm” value with DuPro Cells (setting [2]) is reported as 0.067 nmoles/10^6 cells. Further, the “Conc. (μM) at the start of DNA Aggregation” value with Calf-thymus DNA was 2.2 µM. Moreover, the “solubility in water for injection” value in series [1] is “soluble”.
Turning to `CCNCCCCNCCCCNCCCCNCCCCNCCCCNCCCCNCCCCNCCCCNCCCCNCC.Cl.Cl.Cl.Cl.Cl.Cl.Cl.Cl.Cl.Cl` [SL-11159], the IC50 stood at 0.3 µM in the series on DuPro, 0.15 µM in the series on DU145, 0.6 µM with PC-3 and 0.25 µM in the series on LnCap. Also, the “Polyamine levels, Analog (cellular oligoamine level)” value with DuPro Cells (setting [2]) was 0.525 nmoles/10^6 cells; in the series with DuPro Cells (setting [6]), 0.513 nmoles/10^6 cells; in the series with PC-3 Cells (setting [4]), 0.513 nmoles/10^6 cells; in the series with PC-3 Cells (setting [5]) it was 0.388 nmoles/10^6 cells; in the series with PC-3 Cells (setting [7]), 1.026 nmoles/10^6 cells. The “Polyamine levels, Put” value in the series on DuPro Cells (setting [2]) came out at 0.560 nmoles/10^6 cells; in the series with DuPro Cells (setting [6]), 0.137 nmoles/10^6 cells; in the series with PC-3 Cells (setting [4]), 0.525 nmoles/10^6 cells; in the series with PC-3 Cells (setting [5]), 0.670 nmoles/10^6 cells; in the series with PC-3 Cells (setting [7]) it was 0.640 nmoles/10^6 cells. Further, the “Polyamine levels, Spd” value in the series on PC-3 Cells (setting [4]) was determined as 0.531 nmoles/10^6 cells. In addition, the “Polyamine levels, Spm” value in the series on PC-3 Cells (setting [4]) amounted to 0.300 nmoles/10^6 cells; in the series on PC-3 Cells (setting [5]), 0.240 nmoles/10^6 cells. In addition, in the series on Calf-thymus DNA, the “Conc. (μM) at the start of DNA Aggregation” value worked out at 2.5 µM. In series [1], the “solubility in water for injection” value is “soluble”.

The record behind these values is US7491849B2, “Oligoamine compounds and derivatives thereof for cancer therapy” (priority 2001, dated 2009).
